Assay results: patent publication US12612644B2, “Scalable method for recombinant AAV production” (REGENXBIO Inc., priority 2018, dated 2026)

How the values were obtained:
[1] = test system: CHO cells; settings: cited from earlier work
[2] = test system: HEK293 cells expressing AAV8 particles; test: Large scale (50 liter) rAAV production using NaCl enhancer (Example 3); assay type: cell-based, human; settings: 50 liter culture; NaCl increased by 60 mM 24 hours post transfection
Description: The effect of NaCl on rAAV yield was tested in 50 liter cultures of HEK293 cells expressing AAV8 particles encapsidating a transgene. HEK suspension cultures were grown using standard processes. Cells were diluted to ˜4×10e6 viable cells. The medium used included 100 mM NaCl. Cells were transfected 24 hours post dilution with a mixture of polyethylenimine and 3 plasmids encoding adeno-virus helper functions, transgene and AAV […]. 24 hours post transfection, sufficient NaCl was added to increase the final NaCl concentration by 60 mM. (i.e., the final NaCl concentration was ˜160 mM). Supernatant was harvested on day 4 post transfection. The processes yielded 1×10e+11 genome copy (GC)/ml and 9×10e+10. This is ˜2-fold higher than the yield of the same process without the increase in NaCl concentration following transfection.

[3] = test system: HEK293 cells expressing rAAV9 particles; test: Effect of NaCl and/or sodium propionate on rAAV9 yield, microscale bioreactors (Example 5); assay type: cell-based, human; settings: effects of other conditions averaged
Description: The effect of sodium chloride and sodium propionate (NaPr) (ThermoFisher Scientific) on rAAV yield in a suspension culture of HEK293 cells expressing rAAV9 particles encapsidating a transgene. HEK293 cells were seeded at 1×10e6 viable cell/ml density in advanced microscale bioreactors. The medium comprised 100 mM NaCl. At 48 hrs ECD (Elapsed Culture Duration), the cells were transfected with a mixture of polyethylenimine and 3 plasmids encoding adeno-virus helper functions, transgene and AAV 2/9 Rep/Cap. 4, 20, or 36 hours after transfection, NaCl, NaPr, anti-clump, EFC+, and/or Na valproate was added to the cultures. Conditions tested were 0, 30 mM and 60 mM NaCl, 0, 2 mM and 4 mM NaPr. Multiple conditions were tested using a Design of Experiment approach. The supernatant of the cultures was harvested at […], i.e., 5 days post-transfection. rAAV yields were obtained. […] Resulting titer improvement by adding NaCl and/or NaPr is shown in FIG. 3 where the effects of other tested conditions are averaged. […] The observed ˜2-fold increase is higher than what would be expected if the effect of NaPr and increased NaCl were additive.

[4] = test system: recombinant IgG production; settings: alone; small culture conditions less than 50 L; cited from earlier work

CCC(=O)O [propionic acid]
production of recombinant B-domain deleted factor VIII [1]: enhanced production

[Cl-].[Na+] [NaCl, sodium chloride]
yield relative to the same process without the increase in NaCl concentration [2]: ~2 fold | increase in the titer ([3]; increased NaCl in the absence of sodium propionate): ~1.2 fold

CCC(=O)[O-].[Na+] [sodium propionate]
effect on recombinant IgG production [4]: no strong effect alone | increase in the titer ([3]; 2 mM sodium propionate in the absence of increased NaCl): ~1.5 fold

CCCC(=O)O [butyric acid]
cell growth [1]: inhibited cell growth | production of recombinant B-domain deleted factor VIII [1]: enhanced production
